Results as given in paper PMC6456166, “Mitochondrial type II NADH dehydrogenase of Plasmodium falciparum (PfNDH2) is dispensable in the asexual blood stages” (PLoS ONE, 2019).

Biological target: T1, cytochrome bc1 complex (cytochrome b, cyt b) (Plasmodium falciparum, UniProt Q02768)
T1 construct: gene MT-CYB; native bc1 complex in mitochondria-enriched preparations from D10 WT and ΔPfNDH2 parasites; with other subunits of the bc1 complex (Complex III)
T1 sequence (Q02768 1-376): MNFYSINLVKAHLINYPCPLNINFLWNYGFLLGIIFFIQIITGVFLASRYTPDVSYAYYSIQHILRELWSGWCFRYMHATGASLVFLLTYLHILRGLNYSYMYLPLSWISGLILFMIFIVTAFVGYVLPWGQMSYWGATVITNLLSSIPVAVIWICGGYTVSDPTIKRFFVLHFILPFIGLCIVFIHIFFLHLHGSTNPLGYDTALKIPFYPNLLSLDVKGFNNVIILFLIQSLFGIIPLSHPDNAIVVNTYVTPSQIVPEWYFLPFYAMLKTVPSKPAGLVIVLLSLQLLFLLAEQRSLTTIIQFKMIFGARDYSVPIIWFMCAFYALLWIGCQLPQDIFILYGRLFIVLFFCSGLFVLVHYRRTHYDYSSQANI
Experiment: ubiquinol-cytochrome c reductase assay in isolated parasite mitochondria ([…] nm), dose-dependent inhibition in WT and ΔPfNDH2
Type: cell-based

**Q.** Which “ubiquinol-cytochrome c reductase assay in isolated parasite mitochondria (550 nm)” value does the source give for `CCCCCCCCCCCCc1cc(=O)c2ccccc2n1O` [HDQ, 1-hydroxy-2-dodecyl-4(1H) quinolone] here?
**A.** Its value is “HDQ and CK-2-68 inhibited the ubiquinol-cytochrome c reductase activity in the mitochondria of ΔPfNDH2 and WT”.
